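A five-concentration, 48-hour dose response in 96-well plates underlies each endpoint, interpolated linearly between surrounding concentrations. At the TGI there is no net growth.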
How the values were obtained:
Test in all cases: NCI-60 cell line screen, 48 h
786-0 renal = system: 786-0 renal
A498 renal = system: A498 renal
ACHN renal = system: ACHN renal
CAKI-1 renal = system: CAKI-1 renal
CCRF-CEM leukemia = system: CCRF-CEM leukemia
DU-145 prostate = system: DU-145 prostate
EKVX NSCLC = system: EKVX NSCLC
HCT-116 colon = system: HCT-116 colon
HCT-15 colon = system: HCT-15 colon
HL-60(TB) leukemia = system: HL-60(TB) leukemia
HOP-62 NSCLC = system: HOP-62 NSCLC
HS 578T breast = system: HS 578T breast
HT29 colon = system: HT29 colon
IGROV1 ovarian = system: IGROV1 ovarian
K-562 leukemia = system: K-562 leukemia
KM12 colon = system: KM12 colon
LOX IMVI melanoma = system: LOX IMVI melanoma
M14 melanoma = system: M14 melanoma
MCF7 breast = system: MCF7 breast
MDA-MB-231 breast = system: MDA-MB-231 breast
MDA-MB-435 = system: MDA-MB-435
MDA-N = system: MDA-N
MOLT-4 leukemia = system: MOLT-4 leukemia
NCI-H226 lung = system: NCI-H226 lung
NCI-H23 lung = system: NCI-H23 lung
NCI-H460 lung = system: NCI-H460 lung
NCI-H522 lung = system: NCI-H522 lung
NCI/ADR-RES ovarian = system: NCI/ADR-RES ovarian
OVCAR-3 ovarian = system: OVCAR-3 ovarian
OVCAR-4 ovarian = system: OVCAR-4 ovarian
OVCAR-5 ovarian = system: OVCAR-5 ovarian
OVCAR-8 ovarian = system: OVCAR-8 ovarian
PC-3 prostate = system: PC-3 prostate
RPMI-8226 leukemia = system: RPMI-8226 leukemia
RXF 393 renal = system: RXF 393 renal
SF-268 CNS = system: SF-268 CNS
SF-295 CNS = system: SF-295 CNS
SF-539 CNS = system: SF-539 CNS
SK-MEL-2 melanoma = system: SK-MEL-2 melanoma
SK-MEL-28 melanoma = system: SK-MEL-28 melanoma
SK-MEL-5 melanoma = system: SK-MEL-5 melanoma
SK-OV-3 ovarian = system: SK-OV-3 ovarian
SR leukemia = system: SR leukemia
SW-620 colon = system: SW-620 colon
T-47D breast = system: T-47D breast
TK-10 renal = system: TK-10 renal
U251 CNS = system: U251 CNS
UACC-257 melanoma = system: UACC-257 melanoma
UO-31 renal = system: UO-31 renal
A549 NSCLC = system: A549 NSCLC
COLO 205 colon = system: COLO 205 colon
HCC-2998 colon = system: HCC-2998 colon
HOP-92 NSCLC = system: HOP-92 NSCLC
MALME-3M melanoma = system: MALME-3M melanoma
SN12C renal = system: SN12C renal
SNB-19 CNS = system: SNB-19 CNS
UACC-62 melanoma = system: UACC-62 melanoma
BT-549 breast = system: BT-549 breast
SNB-75 CNS = system: SNB-75 CNS

## Fc1ccc(NCn2nc(COc3ccccc3Cl)n(/N=C/c3ccc(-c4ccc(Cl)cc4Cl)o3)c2=S)cc1Cl
786-0 renal
  TGI: > 100 µM
A498 renal
  TGI: 41.6 µM
ACHN renal
  TGI: > 100 µM
CAKI-1 renal
  TGI: > 100 µM
CCRF-CEM leukemia
  TGI: > 100 µM
DU-145 prostate
  TGI: > 100 µM
EKVX NSCLC
  TGI: > 100 µM
HCT-116 colon
  TGI: > 100 µM
HCT-15 colon
  TGI: > 100 µM
HL-60(TB) leukemia
  TGI: 48.9 µM
HOP-62 NSCLC
  TGI: > 100 µM
HS 578T breast
  TGI: > 100 µM
HT29 colon
  TGI: > 100 µM
IGROV1 ovarian
  TGI: > 100 µM
K-562 leukemia
  TGI: 43.6 µM
KM12 colon
  TGI: 99 µM
LOX IMVI melanoma
  TGI: > 100 µM
M14 melanoma
  TGI: > 100 µM
MCF7 breast
  TGI: > 100 µM
MDA-MB-231 breast
  TGI: > 100 µM
MDA-MB-435
  TGI: > 100 µM
MDA-N
  TGI: > 100 µM
MOLT-4 leukemia
  TGI: 45.5 µM
NCI-H226 lung
  TGI: > 100 µM
NCI-H23 lung
  TGI: > 100 µM
NCI-H460 lung
  TGI: > 100 µM
NCI-H522 lung
  TGI: > 100 µM
NCI/ADR-RES ovarian
  TGI: > 100 µM
OVCAR-3 ovarian
  TGI: > 100 µM
OVCAR-4 ovarian
  TGI: > 100 µM
OVCAR-5 ovarian
  TGI: > 100 µM
OVCAR-8 ovarian
  TGI: > 100 µM
PC-3 prostate
  TGI: > 100 µM
RPMI-8226 leukemia
  TGI: 72 µM
RXF 393 renal
  TGI: 56.6 µM
SF-268 CNS
  TGI: > 100 µM
SF-295 CNS
  TGI: > 100 µM
SF-539 CNS
  TGI: > 100 µM
SK-MEL-2 melanoma
  TGI: 62.6 µM
SK-MEL-28 melanoma
  TGI: > 100 µM
SK-MEL-5 melanoma
  TGI: 29.9 µM
SK-OV-3 ovarian
  TGI: > 100 µM
SR leukemia
  TGI: 36.8 µM
SW-620 colon
  TGI: > 100 µM
T-47D breast
  TGI: > 100 µM
TK-10 renal
  TGI: > 100 µM
U251 CNS
  TGI: 75.2 µM
UACC-257 melanoma
  TGI: > 100 µM
UO-31 renal
  TGI: > 100 µM

## O/N=C1/CCCCCC1NO (stereo not given)
786-0 renal
  TGI: > 100 µM
A549 NSCLC
  TGI: > 100 µM
ACHN renal
  TGI: > 100 µM
CAKI-1 renal
  TGI: > 100 µM
COLO 205 colon
  TGI: > 100 µM
DU-145 prostate
  TGI: > 100 µM
EKVX NSCLC
  TGI: > 100 µM
HCC-2998 colon
  TGI: > 100 µM
HCT-116 colon
  TGI: > 100 µM
HCT-15 colon
  TGI: > 100 µM
HOP-62 NSCLC
  TGI: > 100 µM
HOP-92 NSCLC
  TGI: > 100 µM
HS 578T breast
  TGI: > 100 µM
HT29 colon
  TGI: > 100 µM
IGROV1 ovarian
  TGI: > 100 µM
KM12 colon
  TGI: > 100 µM
LOX IMVI melanoma
  TGI: > 100 µM
M14 melanoma
  TGI: > 100 µM
MALME-3M melanoma
  TGI: > 100 µM
MCF7 breast
  TGI: > 100 µM
MDA-MB-231 breast
  TGI: > 100 µM
MDA-MB-435
  TGI: > 100 µM
MDA-N
  TGI: > 100 µM
MOLT-4 leukemia
  TGI: > 100 µM
NCI-H226 lung
  TGI: > 100 µM
NCI-H23 lung
  TGI: > 100 µM
NCI-H460 lung
  TGI: > 100 µM
NCI/ADR-RES ovarian
  TGI: > 100 µM
OVCAR-3 ovarian
  TGI: > 100 µM
OVCAR-4 ovarian
  TGI: > 100 µM
OVCAR-5 ovarian
  TGI: > 100 µM
OVCAR-8 ovarian
  TGI: > 100 µM
PC-3 prostate
  TGI: > 100 µM
RPMI-8226 leukemia
  TGI: > 100 µM
RXF 393 renal
  TGI: > 100 µM
SF-268 CNS
  TGI: > 100 µM
SF-295 CNS
  TGI: > 100 µM
SF-539 CNS
  TGI: > 100 µM
SK-MEL-2 melanoma
  TGI: > 100 µM
SK-MEL-28 melanoma
  TGI: > 100 µM
SK-MEL-5 melanoma
  TGI: > 100 µM
SK-OV-3 ovarian
  TGI: > 100 µM
SN12C renal
  TGI: > 100 µM
SNB-19 CNS
  TGI: > 100 µM
SW-620 colon
  TGI: > 100 µM
T-47D breast
  TGI: > 100 µM
TK-10 renal
  TGI: > 100 µM
U251 CNS
  TGI: > 100 µM
UACC-257 melanoma
  TGI: > 100 µM
UACC-62 melanoma
  TGI: > 100 µM
UO-31 renal
  TGI: > 100 µM

## COc1ccc(-c2oc3cc(OC)c(OC)c(OC)c3c(=O)c2OC)cc1OC
786-0 renal
  TGI: > 100 µM
A498 renal
  TGI: > 100 µM
A549 NSCLC
  TGI: > 100 µM
ACHN renal
  TGI: > 100 µM
BT-549 breast
  TGI: > 100 µM
CAKI-1 renal
  TGI: > 100 µM
CCRF-CEM leukemia
  TGI: > 100 µM
COLO 205 colon
  TGI: > 100 µM
DU-145 prostate
  TGI: > 100 µM
EKVX NSCLC
  TGI: > 100 µM
HCC-2998 colon
  TGI: > 100 µM
HCT-116 colon
  TGI: > 100 µM
HCT-15 colon
  TGI: > 100 µM
HL-60(TB) leukemia
  TGI: 83.4 µM
HOP-62 NSCLC
  TGI: > 100 µM
HOP-92 NSCLC
  TGI: > 100 µM
HS 578T breast
  TGI: > 100 µM
HT29 colon
  TGI: > 100 µM
IGROV1 ovarian
  TGI: > 100 µM
K-562 leukemia
  TGI: > 100 µM
KM12 colon
  TGI: > 100 µM
LOX IMVI melanoma
  TGI: > 100 µM
M14 melanoma
  TGI: > 100 µM
MALME-3M melanoma
  TGI: > 100 µM
MCF7 breast
  TGI: > 100 µM
MDA-MB-231 breast
  TGI: > 100 µM
MDA-MB-435
  TGI: > 100 µM
MDA-N
  TGI: > 100 µM
MOLT-4 leukemia
  TGI: > 100 µM
NCI-H226 lung
  TGI: > 100 µM
NCI-H23 lung
  TGI: > 100 µM
NCI-H460 lung
  TGI: > 100 µM
NCI-H522 lung
  TGI: > 100 µM
NCI/ADR-RES ovarian
  TGI: > 100 µM
OVCAR-3 ovarian
  TGI: > 100 µM
OVCAR-4 ovarian
  TGI: > 100 µM
OVCAR-5 ovarian
  TGI: > 100 µM
OVCAR-8 ovarian
  TGI: > 100 µM
PC-3 prostate
  TGI: > 100 µM
RXF 393 renal
  TGI: > 100 µM
SF-268 CNS
  TGI: > 100 µM
SF-295 CNS
  TGI: > 100 µM
SF-539 CNS
  TGI: > 100 µM
SK-MEL-2 melanoma
  TGI: > 100 µM
SK-MEL-28 melanoma
  TGI: > 100 µM
SK-MEL-5 melanoma
  TGI: > 100 µM
SK-OV-3 ovarian
  TGI: > 100 µM
SN12C renal
  TGI: > 100 µM
SNB-19 CNS
  TGI: > 100 µM
SNB-75 CNS
  TGI: > 100 µM
SW-620 colon
  TGI: > 100 µM
T-47D breast
  TGI: > 100 µM
TK-10 renal
  TGI: > 100 µM
U251 CNS
  TGI: > 100 µM
UACC-257 melanoma
  TGI: > 100 µM
UACC-62 melanoma
  TGI: > 100 µM
UO-31 renal
  TGI: > 100 µM

## Cn1c(=O)c2c(ncn2CCSS(=O)(=O)O)n(C)c1=O
786-0 renal
  TGI: > 100 µM
A498 renal
  TGI: > 100 µM
A549 NSCLC
  TGI: > 100 µM
ACHN renal
  TGI: > 100 µM
BT-549 breast
  TGI: > 100 µM
CAKI-1 renal
  TGI: > 100 µM
COLO 205 colon
  TGI: > 100 µM
DU-145 prostate
  TGI: > 100 µM
EKVX NSCLC
  TGI: > 100 µM
HCT-116 colon
  TGI: > 100 µM
HCT-15 colon
  TGI: > 100 µM
HOP-62 NSCLC
  TGI: > 100 µM
HOP-92 NSCLC
  TGI: > 100 µM
HS 578T breast
  TGI: > 100 µM
HT29 colon
  TGI: > 100 µM
IGROV1 ovarian
  TGI: > 100 µM
K-562 leukemia
  TGI: > 100 µM
KM12 colon
  TGI: > 100 µM
M14 melanoma
  TGI: > 100 µM
MALME-3M melanoma
  TGI: > 100 µM
MCF7 breast
  TGI: > 100 µM
MDA-MB-231 breast
  TGI: > 100 µM
MDA-MB-435
  TGI: > 100 µM
MDA-N
  TGI: > 100 µM
NCI-H226 lung
  TGI: > 100 µM
NCI-H23 lung
  TGI: > 100 µM
NCI-H460 lung
  TGI: > 100 µM
NCI-H522 lung
  TGI: > 100 µM
NCI/ADR-RES ovarian
  TGI: > 100 µM
OVCAR-3 ovarian
  TGI: > 100 µM
OVCAR-4 ovarian
  TGI: > 100 µM
OVCAR-5 ovarian
  TGI: > 100 µM
OVCAR-8 ovarian
  TGI: > 100 µM
PC-3 prostate
  TGI: > 100 µM
RPMI-8226 leukemia
  TGI: > 100 µM
RXF 393 renal
  TGI: > 100 µM
SF-268 CNS
  TGI: > 100 µM
SF-295 CNS
  TGI: > 100 µM
SF-539 CNS
  TGI: > 100 µM
SK-MEL-2 melanoma
  TGI: > 100 µM
SK-MEL-28 melanoma
  TGI: > 100 µM
SK-MEL-5 melanoma
  TGI: > 100 µM
SK-OV-3 ovarian
  TGI: > 100 µM
SN12C renal
  TGI: > 100 µM
SNB-19 CNS
  TGI: > 100 µM
SNB-75 CNS
  TGI: > 100 µM
SW-620 colon
  TGI: > 100 µM
T-47D breast
  TGI: > 100 µM
TK-10 renal
  TGI: > 100 µM
U251 CNS
  TGI: > 100 µM
UACC-257 melanoma
  TGI: > 100 µM
UACC-62 melanoma
  TGI: > 100 µM
UO-31 renal
  TGI: > 100 µM

From PubChem BioAssay (NCI)
